target: T1, human GPBAR1 receptor (Homo sapiens, UniProt Q8TDU6); experiment: functional cAMP assay in CHO-dhfr(minus) cells expressing human GPBAR1 receptors; assay type: cell-based; conditions: human EC50, functional cAMP assay, 30 min at 30° C.
T1 construct: expressed in transfected cells
T1 sequence (Q8TDU6 1-330): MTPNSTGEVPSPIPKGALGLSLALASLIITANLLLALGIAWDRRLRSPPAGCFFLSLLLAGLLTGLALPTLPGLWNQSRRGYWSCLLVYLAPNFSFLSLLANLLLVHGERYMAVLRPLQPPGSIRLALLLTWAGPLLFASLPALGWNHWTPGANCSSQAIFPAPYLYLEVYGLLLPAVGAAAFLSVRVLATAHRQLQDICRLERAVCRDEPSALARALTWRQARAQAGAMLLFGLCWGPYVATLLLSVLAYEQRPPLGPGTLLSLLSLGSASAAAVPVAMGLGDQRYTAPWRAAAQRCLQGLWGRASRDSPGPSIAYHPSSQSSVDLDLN
Protocol: The final clone was verified by DNA sequence analysis. The plasmid was transfected into CHO cells deficient in dihydrofolate reductase activity (CHO-dhfr−) using Lipofectamine plus (Invitrogen). Clones were isolated in limited dilution conditions and identified by activities in the cAMP assay using lithocholic acid as agonist.
The growth medium was exchanged with Krebs Ringer Bicarbonate buffer with 1 mM IBMX and incubated at 30° C. for 30 min. Compounds were added to a final assay volume of 100 μl and incubated for 30 min at 30° C. […] The time-resolved energy transfer is measured by a TRF reader (Evotec Technologies GmbH, Hamburg Germany), equipped with a ND:YAG laser as excitation source.
EC50 values were determined using Activity Base analysis (ID Business Solution, Limited). […] Specificity for GPBAR1 was tested in non-transfected CHO cells in the same assay as above.

Compound	EC50 [µM]
Cc1cc(C(CC(c2ccc(-c3ccc(C(=O)NCCC(=O)O)cc3)cc2)c2ccccc2C)=NO)ccn1 (racemic) [Example 89, 3-({4′-[3-[Hydroxyimino]-3-(2-methyl-pyridin-4-yl)-1-o-tolyl-propyl]-biphenyl-4-carbonyl}-amino)-propionic acid]	0.007
Cc1cc(C(CC(c2ccc(-c3ccc(C(=O)NCC(=O)O)cc3)cc2)c2ccccc2C)=NO)ccn1 (racemic) [Example 90, ({4′-[3-[Hydroxyimino]-3-(2-methyl-pyridin-4-yl)-1-o-tolyl-propyl]-biphenyl-4-carbonyl}-amino)-acetic acid]	0.01
Cc1cc(C(C[C@@H](c2ccc(-c3ccc(C(=O)N[C@@H](C)C(=O)O)cc3)cc2)c2ccccc2C)=NO)ccn1 (racemic) [Example 95, (S)-2-({4′-[(S)-3-[Hydroxyimino]-3-(2-methyl-pyridin-4-yl)-1-o-tolyl-propyl]-biphenyl-4-carbonyl}-amino)-propionic acid]	0.039
Cc1cc(C(C[C@@H](c2ccc(-c3ccc(C(=O)N[C@H](C)c4ccccc4)cc3)cc2)c2ccccc2C)=NO)ccn1 (racemic) [Example 97, 4′-[(S)-3-[Hydroxyimino]-3-(2-methyl-pyridin-4-yl)-1-o-tolyl-propyl]-biphenyl-4-carboxylic acid ((R)-1-phenyl-ethyl)-amide]	0.177
Cc1cc(C(CC(c2cccc(Br)c2)c2ccccc2C)=NO)ccn1 (racemic) [Example 98, 3-(3-Bromo-phenyl)-1-(2-methyl-pyridin-4-yl)-3-o-tolyl-propan-1-one oxime]	0.146
Cc1cc(C(CC(c2cccc(-c3ccc(C(=O)O)nc3)c2)c2ccccc2C)=NO)ccn1 (racemic) [Example 99, 5-{3-[3-[Hydroxyimino]-3-(2-methyl-pyridin-4-yl)-1-o-tolyl-propyl]-phenyl}-pyridine-2-carboxylic acid]	5.05
COC(=O)c1ccc(-c2cccc(C(CC(=NO)c3ccnc(C)c3)c3ccccc3C)c2)cc1F (racemic) [Example 100, 3-Fluoro-3′-[3-[hydroxyimino]-3-(2-methyl-pyridin-4-yl)-1-o-tolyl-propyl]-biphenyl-4-carboxylic acid methyl ester]	0.514
Cc1cc(C(CC(c2cccc(-c3cccc(C(=O)O)c3)c2)c2ccccc2C)=NO)ccn1 (racemic) [Example 102, 3′-[3-[Hydroxyimino]-3-(2-methyl-pyridin-4-yl)-1-o-tolyl-propyl]-biphenyl-3-carboxylic acid]	0.323
Cc1cc(C(CC(c2cccc(-c3ccc(S(C)(=O)=O)cc3)c2)c2ccccc2C)=NO)ccn1 (racemic) [Example 104, 3-(4′-Methanesulfonyl-biphenyl-3-yl)-1-(2-methyl-pyridin-4-yl)-3-o-tolyl-propan-1-one oxime]	0.578
Cc1cc(C(CC(c2cccc(C#CCO)c2)c2ccccc2C)=NO)ccn1 (racemic) [Example 106, 3-[3-(3-Hydroxy-prop-1-ynyl)-phenyl]-1-(2-methyl-pyridin-4-yl)-3-o-tolyl-propan-1-one oxime]	0.255
Cc1cc(C(CC(c2cccc(CCCO)c2)c2ccccc2C)=NO)ccn1 (racemic) [Example 107, 3-[3-(3-Hydroxy-propyl)-phenyl]-1-(2-methyl-pyridin-4-yl)-3-o-tolyl-propan-1-one oxime]	0.153
COc1cc(C(CC(c2ccc(Br)cc2)c2ccccc2C)=NO)ccn1 (racemic) [Example 109, 3-(4-Bromo-phenyl)-1-(2-methoxy-pyridin-4-yl)-3-o-tolyl-propan-1-one oxime]	0.702
Cc1cc(C(CC(c2ccc(C#CCCC(=O)O)cc2)c2ccccc2C)=NO)ccn1 (racemic) [Example 111, 5-{4-[3-[Hydroxyimino]-3-(2-methyl-pyridin-4-yl)-1-o-tolyl-propyl]-phenyl}-pent-4-ynoic acid]	0.027
Cc1cc(C(CC(c2ccc(-c3ccc(C(=O)O)c(F)c3)cc2)c2ccccc2C)=NO)ccn1 (racemic) [Example 112, 3-Fluoro-4′-[3-[hydroxyimino]-3-(2-methyl-pyridin-4-yl)-1-o-tolyl-propyl]-biphenyl-4-carboxylic acid]	0.016
Cc1cc(C(CC(c2ccc(-c3ccc(F)c(C(=O)O)c3)cc2)c2ccccc2C)=NO)ccn1 (racemic) [Example 113, 4-Fluoro-4′-[3-[hydroxyimino]-3-(2-methyl-pyridin-4-yl)-1-o-tolyl-propyl]-biphenyl-3-carboxylic acid]	0.215
CC(C)CC(CC(=NO)c1ccncc1)c1ccc(Br)cc1 (racemic) [Example 114, 3-(4-Bromo-phenyl)-5-methyl-1-pyridin-4-yl-hexan-1-one oxime]	1.08
Cc1cc(C(CC(c2ccc(CCCCC(=O)O)cc2)c2ccccc2C)=NO)ccn1 (racemic) [Example 115, 5-{4-[3-[Hydroxyimino]-3-(2-methyl-pyridin-4-yl)-1-o-tolyl-propyl]-phenyl}-pentanoic acid]	0.041
Cc1ccccc1C(CC(=NO)c1ccnc(Cl)c1)c1ccc(Br)cc1 (racemic) [Example 119, 3-(4-Bromo-phenyl)-1-(2-chloro-pyridin-4-yl)-3-o-tolyl-propan-1-one oxime]	0.227
Cc1ccccc1C(CC(=NO)c1cc(F)ncc1Cl)c1ccc(Br)cc1 (racemic) [Example 121, 3-(4-Bromo-phenyl)-1-(5-chloro-2-fluoro-pyridin-4-yl)-3-o-tolyl-propan-1-one oxime]	0.024
Cc1cnc(F)cc1C(CC(c1ccc(Br)cc1)c1ccccc1C)=NO (racemic) [Example 124, 3-(4-Bromo-phenyl)-1-(2-fluoro-5-methyl-pyridin-4-yl)-3-o-tolyl-propan-1-one oxime]	0.017
Cc1ccccc1C(CC(=NO)c1ccc2ncccc2c1)c1ccc(Br)cc1 (racemic) [Example 125, 3-(4-Bromo-phenyl)-1-quinolin-6-yl-3-o-tolyl-propan-1-one oxime]	2.21
Cc1cc(C(CC(c2ccc(Br)cc2)c2ccccc2C)=NO)cc(F)n1 (racemic) [Example 126, 3-(4-Bromo-phenyl)-1-(2-fluoro-6-methyl-pyridin-4-yl)-3-o-tolyl-propan-1-one oxime]	0.061
Cc1ccccc1C(CC(=NO)c1cc(Cl)ncc1F)c1ccc(Br)cc1 (racemic) [Example 127, 3-(4-Bromo-phenyl)-1-(2-chloro-5-fluoro-pyridin-4-yl)-3-o-tolyl-propan-1-one oxime]	0.046
Cc1cc(C(CC(c2ccc(Br)cc2)C(C)(C)C)=NO)ccn1 (racemic) [Example 129, 3-(4-Bromo-phenyl)-4,4-dimethyl-1-(2-methyl-pyridin-4-yl)-pentan-1-one oxime]	0.591
Cc1cnc(F)cc1C(CC(c1ccc(-c2ccc(C(=O)O)cc2)cc1)c1ccccc1C)=NO (racemic) [Example 130, 4′-{3-(2-Fluoro-5-methyl-pyridin-4-yl)-3-[hydroxyimino]-1-o-tolyl-propyl}-biphenyl-4-carboxylic acid]	0.087
Cc1cc(C(=O)O)ccc1-c1ccc(C(C/C(=N\O)c2ccc(=O)n(C)c2)c2ccc(Cl)cc2Cl)cc1 (racemic) [Example 476, 4′-[1-(2,4-Dichloro-phenyl)-3-[(E)-hydroxyimino]-3-(1-methyl-6-oxo-1,6-dihydro-pyridin-3-yl)-propyl]-2-methyl-biphenyl-4-carboxylic acid]	0.049
